Experimental data as given in patent US7998954B2, “Pyrimidodiazepinone derivative” (Kyowa Hakko Kirin Co., Ltd., priority 2007, dated 2011).

What follows are compounds tested on chronic dermatitis model with repeated hapten applications (assay: Effects on pruritus in chronic dermatitis model with repeated hapten (oxazolone) applications). Conditions: 100 mg/kg oral, 1 hour before antigen application on day 16; BALB/c mice; ***P < 0.001, t-test vs control group.
Type: in vivo
Excerpt: Effects on Pruritus in Chronic Dermatitis Model with Repeated Hapten Applications
A chronic dermatitis model with repeated hapten applications was produced by partially modifying the method of Kitagaki et al. [Journal of Investigative Dermatology, 1995, Vol. 105, p. 749-755].
Oxazolone (Sigma-Aldrich) was used as hapten, and dissolved in acetone (Kanto Kagaku) to prepare a 0.5 w/v % oxazolone-acetone solution (antigen solution). BALB/c mice (6 weeks of age) were sensitized by a single application of the antigen solution (10 μL) to the shaved rostral back. […]
Itch response of the mice on day 16 was analyzed by partially modifying the method of Kuraishi et al. [European journal of phamacology, 1995, Vol. 275, p. […]
To allow the mice to acclimate to new environment, the mice were left in an acrylic observation cage (7.5×8×15 cm) for 1 hour. The mice were put back into the cage immediately after the application of the antigen solution to the rostral back, and the behavior of the mice was monitored unattended with an 8 mm video camera recorder. […] During the observation, scratching movements with the hind paws around the site of antigen solution application was counted. […] A series of these movements was counted as a single scratching movement.

Question: `CCNc1ncc2c(n1)N1CCC[C@H]1CN(CC1CCN(C(=O)c3ccco3)CC1)C2=O` [Compound 35, (S)-9-Ethylamino-5-[1-(furan-2-carbonyl)piperidin-4-yl]methyl-1,2,3,3a,4,5-hexahydro-5,8,10,10b-tetraazabenzo[e]azulen-6-one] was tested. Which “The number of scratching movements during 1 hr after the hapten applications” value did it give?
Answer: Its value is 84±33 counts.

Question: Which “The number of scratching movements during 1 hr after the hapten applications” value does the source give for `CCNc1ncc2c(n1)N1CCC[C@H]1CN(Cc1ccc(F)cc1F)C2=O` [Compound 3, (S)-5-(2,4-Difluorobenzyl)-9-ethylamino-1,2,3,3a,4,5-hexahydro-5,8,10,10b-tetraazabenzo[e]azulen-6-one] here?
Answer: Its value is 225±37 counts.

What follows are compounds tested on Rats with chronic constriction nerve injury (assay: Analgesic effect in rats with chronic constriction nerve injury (von Frey filaments, 50% pain threshold)). Conditions: oral, dose of 30 mg/kg or less, measured after 3 hours.
Type: in vivo, rat
Excerpt: Analgesic Effect of Compounds in Rats with Chronic Constriction Nerve Injury
Rats with chronic constriction nerve injury were produced by partially modifying the method of Mosconi and Kruger et al. [Pain, 1996, Vol. 64, p. 37-57] with slight modification.
The sciatic nerve in the left posterior leg of male Crl:CD (SD) rats was exfoliated under pentobarbital anesthesia, and a polyethylene tube (trade name: Intramedic; size: PE-60; Becton Dickinson) having a length of 2 mm was wrapped over the site of exfoliation. On days 14 to 21 after the surgery, the rats were placed in an acrylic quadruple cage (width 900 mm×depth 210 mm×height 140 mm) with a wire mesh floor consisting 4 cages connected in a row. Pain evaluation was performed after at least 20 minutes to allow the rats to acclimate to the new environment.
In pain evaluation, von Frey filaments (trade name: Touch Test Sensory Evaluator; Model: 58011; Muromachi Kikai Co., Ltd.) were used. The results were calculated as a pain thresholds. That is, by using a von Frey filament of different stimulus intensity, stimulation was given to the plantar surface of the injured side of rats with chronic constriction nerve injury, and the stimulus intensity to cause paw withdrawal response was obtained. […] 441-462]. The 50% pain thresholds of normal rats were 10 to 12 g on average.
For the evaluation of test compounds, rats with 50% pain thresholds of less than 4 g were used. The test compounds were suspended in a 0.5% aqueous methyl cellulose solution, and orally administered at a volume of 5 mL/kg. After 3 hours, pain thresholds were measured using von Frey filaments.

Question: How did the “pain thresholds (50% paw withdrawal thresholds)” value turn out when `CCNc1ncc2c(n1)N1CCC[C@H]1CN(c1cncc(-c3nnc(C)o3)c1)C2=O` [Compound 43, (S)-9-Ethylamino-5-[5-(5-methyl-1,3,4-oxadiazol-2-yl)pyridin-3-yl]-1,2,3,3a,4,5-hexahydro-5,8,10,10b-tetraazabenzo[e]azulen-6-one] was run?
Answer: The value was “significantly increased pain thresholds”.

Question: How did the “pain thresholds (50% paw withdrawal thresholds)” value turn out when `CNc1ncc2c(n1)N1CCC[C@H]1CN(c1cccc(-c3nn(C)c(=O)o3)c1)C2=O` [Compound 89, (S)-3-Methyl-5-[3-(9-methylamino-6-oxo-2,3,3a,4-tetrahydro-1H,6H-5,8,10,10b-tetraazabenzo[e]azulen-5-yl)phenyl]-1,3,4-oxadiazol-2(3H)-one] was run?
Answer: The value was “significantly increased pain thresholds”.

Question: With `CCNc1ncc2c(n1)N1CCCC1CN(c1cccc(-c3nnc(C)o3)c1)C2=O` (stereo not shown) [Compound 20, 9-Ethylamino-5-[3-(5-methyl-[1,3,4]oxadiazol-2-yl)phenyl]-1,2,3,3a,4,5-hexahydro-5,8,10,10b-tetraazabenzo[e]azulen-6-one] as the compound, how does the “pain thresholds (50% paw withdrawal thresholds)” value read?
Answer: The value was “significantly increased pain thresholds”.

Question: For `CNc1ncc2c(n1)N1CCC[C@H]1CN(c1cccc(-c3noc(C)n3)c1)C2=O` [Compound 74, (S)-5-[3-(5-Methyl-1,2,4-oxadiazol-3-yl)phenyl]-9-methylamino-1,2,3,3a,4,5-hexahydro-5,8,10,10b-tetraazabenzo[e]azulen-6-one], which “pain thresholds (50% paw withdrawal thresholds)” value is on record?
Answer: Its value is “significantly increased pain thresholds”.

Question: For `CCNc1ncc2c(n1)N1CCCC1CN(c1cccc(-c3ccnc(Cl)c3)c1)C2=O` (stereo not shown) [Compound 16, 5-[3-(2-Chloropyridin-4-yl)phenyl]-9-ethylamino-1,2,3,3a,4,5-hexahydro-5,8,10,10b-tetraazabenzo[e]azulen-6-one], which “pain thresholds (50% paw withdrawal thresholds)” value is on record?
Answer: The value was “significantly increased pain thresholds”.

Question: For `CCNc1ncc2c(n1)N1CCC[C@H]1CN(c1cccc(-c3noc(C)n3)c1)C2=O` [Compound 72, (S)-9-Ethylamino-5-[3-(5-methyl-1,2,4-oxadiazol-3-yl)phenyl]-1,2,3,3a,4,5-hexahydro-5,8,10,10b-tetraazabenzo[e]azulen-6-one], which “pain thresholds (50% paw withdrawal thresholds)” value is on record?
Answer: The value was “significantly increased pain thresholds”.

Question: How did the “pain thresholds (50% paw withdrawal thresholds)” value turn out when `CCNc1ncc2c(n1)N1CCC[C@H]1CN(c1cccc(-c3nn(C)c(=O)o3)c1)C2=O` [Compound 90, (S)-5-[3-(9-Ethylamino-6-oxo-2,3,3a,4-tetrahydro-1H,6H-5,8,10,10b-tetraazabenzo[e]azulen-5-yl)phenyl]-3-methyl-1,3,4-oxadiazol-2(3H)-one] was run?
Answer: The value was “significantly increased pain thresholds”.

Question: How did the “pain thresholds (50% paw withdrawal thresholds)” value turn out when `CNc1ncc2c(n1)N1CCC[C@H]1CN(c1cccc(-c3nnn(C)n3)c1)C2=O` [Compound 137, (S)-5-[3-(2-Methyl-2H-tetrazol-5-yl)phenyl]-9-methylamino-1,2,3,3a,4,5-hexahydro-5,8,10,10b-tetraazabenzo[e]azulen-6-one] was run?
Answer: Its value is “significantly increased pain thresholds”.
